Earlier results as cited in patent publication US20070155727A1, “Amide inhibitors of leukotriene A4 hydrolase” (Schering Aktiengessellschaft, priority 2005, published 2007).

Columns and labels:
LTB4 receptor = settings: read-out: Kd, additional lower affinity LTB4 receptors; neutrophils
BLT1 = settings: human BLT1 and its mouse, rat and guinea pig orthologues
LTA4-h [1] = biological target: T1, LTA4-h (Mus musculus, UniProt P24527); settings: oral administration, mouse blood ex vivo
T1 construct: host or cells: mouse blood ex vivo after oral dosing
T1 sequence (P24527 1-611): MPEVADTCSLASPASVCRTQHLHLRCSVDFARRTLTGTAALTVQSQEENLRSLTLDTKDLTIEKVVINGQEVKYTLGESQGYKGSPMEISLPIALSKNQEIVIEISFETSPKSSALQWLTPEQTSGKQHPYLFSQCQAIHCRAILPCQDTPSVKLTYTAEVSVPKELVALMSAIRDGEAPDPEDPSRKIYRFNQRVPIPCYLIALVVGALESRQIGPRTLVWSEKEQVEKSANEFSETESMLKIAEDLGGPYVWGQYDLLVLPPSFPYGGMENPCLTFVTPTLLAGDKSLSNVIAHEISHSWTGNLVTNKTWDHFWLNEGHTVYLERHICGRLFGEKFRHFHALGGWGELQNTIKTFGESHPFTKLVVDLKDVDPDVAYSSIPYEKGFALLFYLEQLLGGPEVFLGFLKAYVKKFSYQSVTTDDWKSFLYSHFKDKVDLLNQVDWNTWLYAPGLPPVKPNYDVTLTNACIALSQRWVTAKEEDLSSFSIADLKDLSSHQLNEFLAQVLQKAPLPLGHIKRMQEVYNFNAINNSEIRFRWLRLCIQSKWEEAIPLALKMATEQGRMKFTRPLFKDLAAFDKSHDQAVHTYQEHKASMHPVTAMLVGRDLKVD

colitis = settings: eight weeks of treatment, cotton top tamarins
LTA4-h [2] = biological target: T2, LTA4-h (Rattus norvegicus, UniProt P30349); settings: oral administration, rat peritoneum in vivo
T2 construct: and in rat peritoneum in vivo; host or cells: rat peritoneum in vivo
T2 sequence (P30349 1-611): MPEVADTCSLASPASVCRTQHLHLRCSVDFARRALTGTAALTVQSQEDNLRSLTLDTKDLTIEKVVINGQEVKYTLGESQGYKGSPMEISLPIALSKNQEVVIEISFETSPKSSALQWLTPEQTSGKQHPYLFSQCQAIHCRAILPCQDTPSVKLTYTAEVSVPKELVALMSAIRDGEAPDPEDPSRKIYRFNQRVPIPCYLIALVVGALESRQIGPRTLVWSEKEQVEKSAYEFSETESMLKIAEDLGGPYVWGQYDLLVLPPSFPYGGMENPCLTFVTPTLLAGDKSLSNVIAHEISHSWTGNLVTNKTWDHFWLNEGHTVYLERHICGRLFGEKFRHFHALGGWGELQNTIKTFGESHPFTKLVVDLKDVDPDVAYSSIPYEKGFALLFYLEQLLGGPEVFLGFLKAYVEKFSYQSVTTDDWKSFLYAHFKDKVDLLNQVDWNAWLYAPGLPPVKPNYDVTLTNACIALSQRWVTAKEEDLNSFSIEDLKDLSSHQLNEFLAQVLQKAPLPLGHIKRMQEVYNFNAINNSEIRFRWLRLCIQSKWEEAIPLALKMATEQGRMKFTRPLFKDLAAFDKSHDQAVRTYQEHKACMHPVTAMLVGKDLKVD

Compound | Kd (LTB4 receptor) [nM] | Kd (BLT1) [nM] | inhibition of ionophore-induced LTB4 production (LTA4-h [1]) | colitis symptoms (colitis) | inhibition of ionophore-induced LTB4 production (LTA4-h [2])
CCCCC/C=C\C[C@@H](O)/C=C/C=C/C=C\[C@@H](O)CCCC(=O)O [LTB4, Leukotriene B4] | > 60 | 0.1 to 0.7 |  |  | 
CN(CCCOc1ccc(Cc2ccccc2)cc1)CCC(=O)O.Cl [SC57461] |  |  | caused inhibition of ionophore-induced LTB4 production | significantly improved colitis symptoms | caused inhibition of ionophore-induced LTB4 production
